Reference: article PMC11464777, “Approved drugs successfully repurposed against Leishmania based on machine learning predictions” (Frontiers in Cellular and Infection Microbiology, 2024)
≈ marks a conversion by molar mass, not a printed value. Like-named read-outs stand apart in the source and are kept apart here.

Key:
[1] = test system: THP-1-derived macrophages; assay: Cytotoxicity assay towards THP-1-derived macrophages (MTT); assay type: cell-based, human
Description: (§1) Louis, MO, USA). The PMA-treated THP-1 cells were maintained in this condition for 24 h, followed by a 24 h of rest period after the removal of PMA. […] The cytotoxicity towards THP-1-derived macrophages was assessed after 24, 48 and 72 hours of incubation by MTT assay as described above. […] The percentage of viable cells was calculated from the Optical Density at 570 nm as follows: […]

[2] = as above; assay type: cell-based, human; settings: human, THP-1-derived macrophages (PMA-differentiated), 72 h of treatment, uninfected cells, MTT
Description: as §1

[3] = test system: L. infantum; set-up: method as in Cavalera et al., 2021; settings: dogs with leishmaniasis and chronic kidney disease; ref Cavalera et al., 2021; cited from earlier work
[4] = test system: L. infantum (LV50 and Drep-14) and L. major (Empa-12) promastigotes; assay: MTT promastigote viability assay, stated across the three strains; assay type: cell-based, Leishmania infantum, Leishmania major; settings: 72 h; for Effect on promastigote viability: three strains, at the tested concentrations
From the text: (§2) Three Tunisian laboratory strains already described ([Oualha et al., 2019]), originally isolated from distinct clinical manifestations were used in this study: (i) L. infantum LV50 MHOM/TN/94/LV50) strain originating from a bone marrow of a visceral leishmaniasis patient, (ii) L. infantum Drep-14 (MHOM/TN/96/Drep-14) strain isolated from a lesion of a sporadic cutaneous leishmaniasis patient and (iii) L. major Empa-12 (MHOM/TN/2012/Empa-12) strain isolated from a zoonotic cutaneous leishmaniasis patient. Stocks of these parasites obtained after passage through BALB/c mice were used as previously described ([Oualha et al., 2019]). Thawed cryopreserved parasites were cultured at 22°C in RPMI-1640/Glutamax medium (Gibco BRL, Germany) containing penicillin (100 U/mL) and streptomycin (100 μg/mL) supplemented with 10% heat-inactivated Fetal Bovine Serum (FBS) (Gibco BRL, Germany).
(§3) The effect of the selected compounds on the viability of Leishmania promastigotes was evaluated by a colorimetric MTT (3-(4,5-dimethylthiazol-2yl)-2,5-diphenyl tetrazolium bromide) assay. It consists in the reduction of tetrazolium salt to a […] crystal (blue formazan) by the succinate dehydrogenase activity of mitochondria in living cells, which can be quantified by spectrophotometry. Briefly, 90 μL of promastigotes (5 × 10^5 parasites/well) harvested from the stationary growth phase of each strain were added to a 96-well culture plate and incubated with 10 μL of a range of serial dilutions of the selected compounds in technical replicates (final concentration of 1% DMSO per well) ([Ioset et al., 2009]; [Harigua-Souiai et al., 2018]). […] After 72h of incubation at 22°C, 25 μl of MTT solution (5 mg/mL) was added to each well and incubated at 22°C for 4h. Then, 150 μl of DMSO was added to each well to dissolve the blue formazan and the optical density (OD) was measured at 570 nm with a microplate reader ([…], Labsystems). Promastigotes incubated in complete medium containing 1% DMSO were used as negative control. The standard anti-Leishmania drug, Amphotericin B was used as a positive control. All experiments were performed in two technical replicates and repeated three times in independent experiments. The mean percentage of promastigotes viability was calculated from the Optical Density at 570 nm as follows:
(§4) Promastigote viability (%)= [(ODcompound− ODblank)/(ODnegative control −ODblank)]*100
(§5) Results were expressed as the mean value of the percentage of promastigotes viability ± standard deviation (SD).

[5] = test system: L. infantum; set-up: method as in Gómez-Ochoa et al., 2009; settings: 98 dogs naturally infected with L. infantum, 12-months follow-up; ref Gómez-Ochoa et al., 2009; cited from earlier work
[6] = test system: L. infantum Drep-14 intracellular amastigotes; assay: Anti-amastigote assay in THP-1-derived macrophages, L. infantum Drep-14; assay type: cell-based, Leishmania infantum; settings: Leishmania infantum, Macrophage, Drep-14, intramacrophage, 72 h
Description: (§6) THP-1-derived macrophages (5 × 10^4/well) were seeded in each 8-well Labtek slides (Thermo Scientific). Adherent macrophages were obtained as described above, then infected with stationary phase promastigotes of each strain at a ratio 10:1 (10 parasites/macrophage) in RPMI medium containing penicillin (100 U/mL) and streptomycin (100 μg/mL) with 10% fetal bovine serum (Gibco, Brazil) at 37°C in 5% CO2 for 24 h. […] Non-infected control cells were incubated in a supplemented RPMI medium containing 1% DMSO. After 72h of incubation, cells were fixed and stained using May-Grunwald-Giemsa staining with RAL 555 Kit (RAL DIAGNOSTICS, France), following the manufacturer’s instructions. The percentage of infected cells and the total number of internalized parasites per 100 macrophages were determined under immersion oil (magnification of 1000X) using light microscopy. The percentage of amastigotes viability was expressed as the percentage of total number of internalized parasites within treated cells relative to the total number of internalized parasites within control cells treated with 1% DMSO, and calculated as follows:
(§7) Relative amastigote viability (%) = [(number of amastigotes/100 treated cells)/(number of amastigotes/100 treated cells with1% DMSO)] * 100
(§8) The relative percentage of amastigote viability was evaluated to calculate half inhibitory concentrations (IC50). The mean IC50 values were determined by plotting the curves of the logarithm of compound concentrations versus the relative amastigote viability of three independent experiments performed in two technical replicates for each compound fitted into a nonlinear regression model, using GraphPad Prism version 8.0.1. Selectivity Index (SI) values were calculated as the ratio between cytotoxicity and activity against amastigotes and determined for each compound as follows: SI= CC50/IC50.

[7] = test system: L. infantum Drep-14 promastigotes; assay: microbe, parasite or virus in culture; assay type: cell-based; settings: Leishmania infantum, 72 h
From the text: as §2, §3, §4, §5

[8] = test system: L. infantum LV50 intracellular amastigotes; assay: Anti-amastigote assay in THP-1-derived macrophages, L. infantum LV50; assay type: cell-based, Leishmania infantum; settings: for IC50: Leishmania infantum, Macrophage, LV50, intramacrophage, 72 h
Description: as §6, §7, §8

[9] = test system: L. infantum LV50 promastigotes; assay: MTT-based promastigote viability assay, L. infantum LV50; assay type: cell-based; settings: Leishmania infantum, LV50, 72 h, MTT
From the text: as §2, §3, §4, §5

[10] = test system: L. major Empa-12 promastigotes; assay: MTT-based promastigote viability assay, L. major Empa-12; assay type: cell-based; settings: Leishmania major, Empa-12, 72 h, MTT
From the text: as §2, §3, §4, §5

[11] = test system: Leishmania (Viannia) braziliensis; set-up: method as in Cazorla et al., 2004; settings: hamsters infected with Leishmania (Viannia) braziliensis, versus Glucantime; ref Cazorla et al., 2004; cited from earlier work
[12] = test system: L. major and L. infantum amastigotes; assay: Anti-amastigote assay, stated across the three strains; assay type: cell-based, Leishmania infantum, Leishmania major; settings: CC50/IC50 amastigotes
Description: as §6, §7, §8

[13] = test system: L. major Empa-12 intracellular amastigotes; assay: Anti-amastigote assay in THP-1-derived macrophages, L. major Empa-12; assay type: cell-based, Leishmania major; settings: for IC50: Leishmania major, Macrophage, Empa-12, intramacrophage, 72 h
Description: as §6, §7, §8

[14] = test system: multiple strains of L. donovani; set-up: method as in Pandharkar et al., 2014; settings: ref Pandharkar et al., 2014, read-out: IC50 in vitro; cited from earlier work
[15] = read-out: THP-1-derived macrophages CC50
[16] = read-out: THP-1-derived macrophages CC50 (in brackets) (converted)
[17] = read-out: Amastigotes IC50 (in brackets) (converted)
[18] = read-out: Promastigotes IC50 (in brackets) (converted)

For `O=c1[nH]c2ccccc2n1CCCN1CCC(n2c(=O)[nH]c3cc(Cl)ccc32)CC1` [Domperidone], the “Concentration at which cytotoxic effects start” value (“Concentration” for short) ([1]; 24 h of incubation) was 25000 ng/mL, the “Concentration” value ([1]; 48 h of incubation) was 25000 ng/mL and the “Concentration” value ([1]; 72 h of incubation) was 25000 ng/mL. For the same molecule, the CC50 at 72 h [2, 15] was 26.5 ± 2.6 µg/mL, the CC50 at 72 h [2, 16] was 62400 nM and the “Serum markers in dogs” value [3] was “improve serum creatinine and to reduce anti-L. infantum antibody titers, globulins, gamma globulins, and C-reactive protein (CRP)”. The “Effect on promastigote viability” value [4] was “dose-dependent decrease of parasite viability” and the “Clinical outcome in dogs” value [5] was “effectively reduced clinical symptoms and antibody levels”.

For `CCCCOc1cc(C(=O)NCCN(CC)CC)c2ccccc2n1` [Dibucaine], the IC50 ([6]; read-out: Amastigotes IC50) was 0.9 ± 0.03 µg/mL, the IC50 [6, 17] was 2370 nM and the “Concentration” value ([1]; 24 h of incubation) was 30000 ng/mL. For the same molecule, the “Concentration” value ([1]; 48 h of incubation) was 30000 ng/mL, the “Concentration” value ([1]; 72 h of incubation) was 15000 ng/mL and the CC50 at 72 h [2, 15] was 22.7 ± 1.08 µg/mL. It also gave a CC50 at 72 h [2, 16] of 59700 nM, an IC50 ([7]; read-out: Promastigotes IC50) of 1.05 ± 0.06 µg/mL and an IC50 ([7]; read-out: Promastigotes IC50 (in brackets)) of 2760 nM. The “Selectivity Index (SI)” value ([8]; CC50 THP-1 / IC50 amastigotes LV50, 72 h) was 31.97, the IC50 ([8]; read-out: Amastigotes IC50) was 0.71 ± 0.09 µg/mL and the IC50 [8, 17] was 1870 nM. It also gave an IC50 ([9]; read-out: Promastigotes IC50) of 0.58 ± 0.02 µg/mL, an IC50 [9, 18] of 1530 nM and an IC50 ([10]; read-out: Promastigotes IC50) of 1.04 ± 0.09 µg/mL. For the same molecule, the IC50 [10, 18] was 2740 nM, the “Efficacy of intralesional treatment in hamsters” value [11] was “comparable to the standard dosages of Glucantime” and the IC50 ([4]; Leishmania infantum, LV50, Drep-14, Empa-12, MTT, read-out: Promastigotes IC50, span over the three strains) was 0.58 to 1.05 µg/mL (≈ 1.69 to 3.06 µM). The “Effect on promastigote viability” value [4] was “dose-dependent decrease of parasite viability”, the “Selectivity index (SI), span over strains” value [12] was greater than 25 and the “Selectivity Index (SI)” value ([13]; CC50 THP-1 / IC50 amastigotes Empa-12, 72 h) was 27.35. It also gave an IC50 ([13]; read-out: Amastigotes IC50) of 0.83 ± 0.05 µg/mL and an IC50 [13, 17] of 2190 nM.

In the case of `OC(Cn1cncn1)(Cn1cncn1)c1ccc(F)cc1F` [Fluconazole], the IC50 [14] is given as 140000 ± 50000 nM.
